In US20110224210A1, “NOVEL BIS-AMIDES AS ANTI-MALARIAL AGENTS” (priority 2008, published 2011):

System: P. falciparum K1 (strain resistant to chloroquine and pyrimethamine), erythrocytic stages
Test: Plasmodium falciparum in vitro assay, [3H] hypoxanthine incorporation
Format: cell-based
Settings: Plasmodium falciparum, K1, P. falciparum strain K1; [3H] hypoxanthine incorporation; read-out: IC50 (nM) on K1
Method in brief: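 K1 strain parasites grown in human red cells, 2.5% haematocrit, 0.3% parasitaemia, 37 °C, 4% CO2/3% O2; compounds in seven serial doubling dilutions.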

**Q.** Which IC50 does the source give for `Cc1nn(C)c(C)c1C=CC(=O)N(Cc1ccc(-c2ccccn2)cc1)[C@@H](Cc1ccccc1)C(=O)N1CCC(N(C)C)CC1` [Example 9, (S)-N-[1-Benzyl-2-(4-dimethylamino-piperidin-1-yl)-2-oxo-ethyl]-N-(4-pyridin-2-yl-benzyl)-3-(1,3,5-trimethyl-1H-pyrazol-4-yl)-acrylamide] here?
**A.** Its IC50 is 69 nM.

**Q.** For `COCCN(C)C(=O)[C@H](Cc1ccccc1)N(Cc1ccc(N2CCN(C(C)=O)CC2)cc1)C(=O)C=Cc1cnn(C)c1C` [Example 117, (S)-N-[4-(4-Acetyl-piperazin-1-yl)-benzyl]-3-(1,5-dimethyl-1H-pyrazol-4-yl)-N-{1-[(2-methoxy-ethyl)-methyl-carbamoyl]-2-phenyl-ethyl}-acrylamide], which IC50 is on record?
**A.** Its IC50 is 117 nM.

**Q.** Which IC50 does the source give for `CN(CCN(C)C(=O)[C@H](Cc1ccccc1)N(Cc1ccc(-c2ccccn2)cc1)C(=O)C=Cc1ccc(C(F)(F)F)cc1)Cc1ccc(Br)o1` [Example 219, (S)-N-[1-({2-[(5-Bromo-furan-2-ylmethyl)-methyl-amino]-ethyl}-methyl-carbamoyl)-2-phenyl-ethyl]-N-(4-pyridin-2-yl-benzyl)-3-(4-trifluoromethyl-phenyl)-acrylamide] here?
**A.** The IC50 was 52 nM.

**Q.** How did the IC50 turn out when `COCCN(C)C(=O)[C@H](Cc1ccccc1)N(Cc1ccc(-c2ccccn2)cc1)C(=O)C=Cc1cc(C)on1` [Example 79, (S)-N-{1-[(2-Methoxy-ethyl)-methyl-carbamoyl]-2-phenyl-ethyl}-3-(5-methyl-isoxazol-3-yl)-N-(4-pyridin-2-yl-benzyl)-acrylamide] was run?
**A.** Its IC50 is 288 nM.

**Q.** How did the IC50 turn out when `CC(=O)N1CCN(c2ccc(CN(C(=O)C=Cc3ccc(C(F)(F)F)cc3)[C@@H](Cc3ccccc3)C(=O)N(C)CCN(C)Cc3ccccc3)cc2)CC1` [Example 254, (S)-N-[4-(4-Acetyl-piperazin-1-yl)-benzyl]-N-(1-{[2-(benzyl-methyl-amino)-ethyl]-methyl-carbamoyl}-2-phenyl-ethyl)-3-(4-trifluoromethyl-phenyl)-acrylamide] was run?
**A.** The IC50 was 76 nM.

**Q.** For `COCCN(C)C(=O)[C@H](Cc1ccccc1)N(Cc1ccc(-c2ccncc2)cc1)C(=O)C=Cc1nc(C)oc1C` [Example 97, (S)-3-(2,5-Dimethyl-oxazol-4-yl)-N-{1-[(2-methoxy-ethyl)-methyl-carbamoyl]-2-phenyl-ethyl}-N-(4-pyridin-4-yl-benzyl)-acrylamide], which IC50 is on record?
**A.** Its IC50 is 15 nM.

**Q.** For `COCCN(C)C(=O)[C@H](Cc1ccccc1)N(Cc1ccc(-c2ccccn2)cc1)C(=O)C=Cc1c(C)noc1C` [Example 80, (S)-3-(3,5-Dimethyl-isoxazol-4-yl)-N-{1-[(2-methoxy-ethyl)-methyl-carbamoyl]-2-phenyl-ethyl}-N-(4-pyridin-2-yl-benzyl)-acrylamide], which IC50 is on record?
**A.** Its IC50 is 44 nM.

**Q.** With `CN(CCN(C)C(=O)[C@H](Cc1ccccc1)N(Cc1ccc(-c2ccccn2)cc1)C(=O)C=Cc1ccc(C(F)(F)F)cc1)Cc1ccc(Cl)nc1` [Example 221, (S)-N-[1-({2-[(6-Chloro-pyridin-3-ylmethyl)-methyl-amino]-ethyl}-methyl-carbamoyl)-2-phenyl-ethyl]-N-(4-pyridin-2-yl-benzyl)-3-(4-trifluoromethyl-phenyl)-acrylamide] as the compound, how does the IC50 read?
**A.** The IC50 was 20 nM.

**Q.** How did the IC50 turn out when `CN(C)C1CCN(C(=O)[C@H](Cc2ccccc2)N(Cc2ccc(N3CCOCC3)nc2)C(=O)C=Cc2ccc(C(F)(F)F)cc2)CC1` [Example 136, (S)-N-[1-Benzyl-2-(4-dimethylamino-piperidin-1-yl)-2-oxo-ethyl]-N-(6-morpholin-4-yl-pyridin-3-ylmethyl)-3-(4-trifluoromethyl-phenyl)-acrylamide] was run?
**A.** Its IC50 is 74 nM.

**Q.** Which IC50 does the source give for `COCCN(C)C(=O)[C@H](Cc1ccccc1)N(Cc1ccc(N2CCOCC2)cc1)C(=O)C=Cc1ccc(Cl)nc1` [Example 70, (S)-3-(6-Chloro-pyridin-3-yl)-N-{1-[(2-methoxy-ethyl)-methyl-carbamoyl]-2-phenyl-ethyl}-N-(4-morpholin-4-yl-benzyl)-acrylamide] here?
**A.** The IC50 was 144 nM.

**Q.** Which IC50 does the source give for `Cc1nc(C=CC(=O)N(Cc2ccc(-c3ccncc3)cc2)[C@@H](Cc2ccccc2)C(=O)N2CCC(N(C)C)CC2)cs1` [Example 23, (S)-N-[1-Benzyl-2-(4-dimethylamino-piperidin-1-yl)-2-oxo-ethyl]-3-(2-methyl-thiazol-4-yl)-N-(4-pyridin-4-yl-benzyl)-acrylamide] here?
**A.** The IC50 was 141 nM.

**Q.** `CC(C)Oc1ccc(CN(C)CCN(C)C(=O)[C@H](Cc2ccccc2)N(Cc2ccc(N3CCOCC3)cc2)C(=O)C=Cc2ccc(C(F)(F)F)cc2)cc1` [Example 262, (S)-N-[1-({2-[(4-Isopropoxy-benzyl)-methyl-amino]-ethyl}-methyl-carbamoyl)-2-phenyl-ethyl]-N-(4-morpholin-4-yl-benzyl)-3-(4-trifluoromethyl-phenyl)-acrylamide] was tested. Which IC50 did it give?
**A.** The IC50 was 17 nM.

**Q.** With `COCCN(C)C(=O)[C@H](Cc1ccccc1)N(Cc1ccc(-c2ccccn2)cc1)C(=O)C=Cc1nc(C)oc1C` [Example 81, (S)-3-(2,5-Dimethyl-oxazol-4-yl)-N-{1-[(2-methoxy-ethyl)-methyl-carbamoyl]-2-phenyl-ethyl}-N-(4-pyridin-2-yl-benzyl)-acrylamide] as the compound, how does the IC50 read?
**A.** Its IC50 is 102 nM.

**Q.** For `Cc1nc(C=CC(=O)N(Cc2ccc(-c3ccccn3)cc2)[C@@H](Cc2ccccc2)C(=O)N2CCC(N(C)C)CC2)c(C)o1` [Example 13, (S)-N-[1-Benzyl-2-(4-dimethylamino-piperidin-1-yl)-2-oxo-ethyl]-3-(2,5-dimethyl-oxazol-4-yl)-N-(4-pyridin-2-yl-benzyl)-acrylamide], which IC50 is on record?
**A.** Its IC50 is 355 nM.

**Q.** `CC(=O)N1CCN(c2ccc(CN(C(=O)C=Cc3ccc(C(F)(F)F)cc3)[C@@H](Cc3ccccc3)C(=O)N(C)CCOCc3ccccn3)cc2)CC1` [Example 214, (S)-N-[4-(4-Acetyl-piperazin-1-yl)-benzyl]-N-(1-{methyl-[2-(pyridin-2-ylmethoxy)-ethyl]-carbamoyl}-2-phenyl-ethyl)-3-(4-trifluoromethyl-phenyl)-acrylamide] was tested. Which IC50 did it give?
**A.** The IC50 was 23 nM.

**Q.** `CN(CCN(C)C(=O)[C@H](Cc1ccccc1)N(Cc1ccc(-c2ccccn2)cc1)C(=O)C=Cc1ccc(C(F)(F)F)cc1)Cc1ccc(C(F)(F)F)nc1` [Example 230, (S)-N-[1-(Methyl-{2-[methyl-(6-trifluoromethyl-pyridin-3-ylmethyl)-amino]-ethyl}-carbamoyl)-2-phenyl-ethyl]-N-(4-pyridin-2-yl-benzyl)-3-(4-trifluoromethyl-phenyl)-acrylamide] was tested. Which IC50 did it give?
**A.** Its IC50 is 10 nM.

**Q.** With `CC(=O)N1CCN(c2ccc(CN(C(=O)C=Cc3ccc(C(F)(F)F)cc3)[C@@H](Cc3ccccc3)C(=O)N(C)CCOCC(N)=O)cc2)CC1` [Example 213, (S)-N-[4-(4-Acetyl-piperazin-1-yl)-benzyl]-N-{1-[(2-carbamoylmethoxy-ethyl)-methyl-carbamoyl]-2-phenyl-ethyl}-3-(4-trifluoromethyl-phenyl)-acrylamide] as the compound, how does the IC50 read?
**A.** Its IC50 is 72 nM.

**Q.** With `COCCN(C)C(=O)[C@H](Cc1ccccc1)N(Cc1ccc(N2CCOCC2)cc1)C(=O)C=Cc1ccc(C)nc1` [Example 69, (S)-N-{1-[(2-Methoxy-ethyl)-methyl-carbamoyl]-2-phenyl-ethyl}-3-(6-methyl-pyridin-3-yl)-N-(4-morpholin-4-yl-benzyl)-acrylamide] as the compound, how does the IC50 read?
**A.** The IC50 was 169 nM.

**Q.** For `COc1ccc(C=CC(=O)N(Cc2ccc(-c3cncnc3)cc2)[C@@H](Cc2ccccc2)C(=O)N2CCC(N(C)C)CC2)cn1` [Example 41, (S)-N-[1-Benzyl-2-(4-dimethylamino-piperidin-1-yl)-2-oxo-ethyl]-3-(6-methoxy-pyridin-3-yl)-N-(4-pyrimidin-5-yl-benzyl)-acrylamide], which IC50 is on record?
**A.** The IC50 was 169 nM.
